Data from ChEMBL document CHEMBL3044627, “Residual and sublethal effects of fenpyroximate and pyridaben on the instantaneous rate of increase of Tetranychus urticae” (Crop Prot, 2006).
Active and inactive are the calls of the source. The calls are words filed in the database; no cut-off is given here.

How the values were obtained:
Assay type in all cases: functional, organism-based
[1] = test system: Tetranychus urticae; experiment: Acaricidal activity against Tetranychus urticae (two-spotted spider mite) infested kidney bean leaves assessed as decrease in reproduction of survivors applied as spray after 3 days
[2] = test system: Tetranychus urticae; experiment: Acaricidal activity against Tetranychus urticae (two-spotted spider mite) infested kidney bean leaves assessed as decrease in survivors of progeny applied as spray after 5 days
[3] = test system: Tetranychus urticae; experiment: Acaricidal activity against Tetranychus urticae (two-spotted spider mite) infested kidney bean leaves assessed as decrease in reproduction of survivors applied as spray after 7 days
[4] = test system: Tetranychus urticae; experiment: Acaricidal activity against Tetranychus urticae (two-spotted spider mite) infested kidney bean leaves assessed as decrease in survivors of progeny applied as spray after 9 days
[5] = test system: Tetranychus urticae; experiment: Acaricidal activity against Tetranychus urticae (two-spotted spider mite) infested kidney bean leaves assessed as decrease in survivors of progeny applied as spray after 1 day
[6] = test system: Tetranychus urticae; experiment: Acaricidal activity against Tetranychus urticae (two-spotted spider mite) infested kidney bean leaves assessed as decrease in reproduction of survivors applied as spray after 9 days
[7] = test system: Tetranychus urticae; experiment: Acaricidal activity against Tetranychus urticae (two-spotted spider mite) infested kidney bean leaves assessed as decrease in immature production at 6.4 to 46.6 ppm applied as spray after 3 to 6 days
[8] = test system: Tetranychus urticae; experiment: Acaricidal activity against Tetranychus urticae (two-spotted spider mite) infested kidney bean leaves assessed as decrease in reproduction of survivors applied as spray after 5 days
[9] = test system: Tetranychus urticae; experiment: Acaricidal activity against Tetranychus urticae (two-spotted spider mite) infested kidney bean leaves assessed as decrease in reproduction of survivors applied as spray after 1 day
[10] = test system: Tetranychus urticae; experiment: Acaricidal activity against Tetranychus urticae (two-spotted spider mite) infested kidney bean leaves assessed as decrease in survivors of progeny applied as spray after 3 days
[11] = test system: Tetranychus urticae; experiment: Acaricidal activity against Tetranychus urticae (two-spotted spider mite) infested kidney bean leaves assessed as decrease in survival at 6.4 to 46.6 ppm applied as spray after 7 to 9 days relative to control
[12] = test system: Tetranychus urticae; experiment: Acaricidal activity against Tetranychus urticae (two-spotted spider mite) infested kidney bean leaves assessed as decrease in survival at 6.4 to 46.6 ppm applied as spray up to 5 days relative to control
[13] = test system: Tetranychus urticae; experiment: Acaricidal activity against Tetranychus urticae (two-spotted spider mite) infested kidney bean leaves assessed as decrease in survivors of progeny applied as spray after 7 days
[14] = test system: Tetranychus urticae; experiment: Acaricidal activity against Tetranychus urticae (two-spotted spider mite) infested kidney bean leaves assessed as decrease in survival at 2101.3 to 20446.5 ppm applied as spray after 3 days relative to control
[15] = test system: Tetranychus urticae; experiment: Acaricidal activity against Tetranychus urticae (two-spotted spider mite) infested kidney bean leaves assessed as decrease in egg production applied as spray after 3 to 6 days
[16] = test system: Tetranychus urticae; experiment: Acaricidal activity against Tetranychus urticae (two-spotted spider mite) infested kidney bean leaves assessed as decrease in immature production at 2101 ppm applied as spray after 3 to 6 days

For `Cc1nn(C)c(Oc2ccccc2)c1/C=N/OCc1ccc(C(=O)OC(C)(C)C)cc1` [FENPYROXYMATE], the EC50 [1] was 131.1 ppm, the EC50 [2] was 72.7 ppm and the EC50 [3] was 124 ppm. It also gave an EC50 [4] of 104 ppm, an EC50 [5] of 116.2 ppm and an EC50 [6] of 253.7 ppm. The Activity [7] was “Active”, the EC50 [8] was 130.8 ppm and the EC50 [9] was 114.6 ppm. The EC50 [10] was 99 ppm, the Activity [11] was “inactive” and the Activity [12] was “Active”. For the same molecule, the EC50 [13] was 70.1 ppm.

With `CC(C)(C)c1ccc(CSc2cnn(C(C)(C)C)c(=O)c2Cl)cc1` [PYRIDABEN] the Activity [14] was “inactive”, the EC50 [1] was 19162.1 ppm and the EC50 [3] was 19425.1 ppm. For the same molecule, the Activity [15] was “Dose-dependent effect”, the EC50 [6] was 49880.7 ppm and the EC50 [8] was 19439.6 ppm. The EC50 [9] was 9118.1 ppm and the Activity [16] was “Active”.
